This note sets out measurements from patent US9102701B2, “17-hydroxy-17-pentafluoroethyl-estra-4,9(10)-diene-11-ethynylphenyl derivatives, methods for the production thereof and use thereof for treating diseases” (Bayer Intellectual Property GmbH, priority 2009, dated 2015).

Test [1] deals with T1, human progesterone receptor A (Homo sapiens, UniProt P06401).
T1 construct: expressed in transfected cells; host or cells: SK-N-MC human neuroblastoma cells, stably transfected with pRChPR-A-neo and pMMTV-LUC
T1 sequence (P06401 1-769 isoform P06401-2): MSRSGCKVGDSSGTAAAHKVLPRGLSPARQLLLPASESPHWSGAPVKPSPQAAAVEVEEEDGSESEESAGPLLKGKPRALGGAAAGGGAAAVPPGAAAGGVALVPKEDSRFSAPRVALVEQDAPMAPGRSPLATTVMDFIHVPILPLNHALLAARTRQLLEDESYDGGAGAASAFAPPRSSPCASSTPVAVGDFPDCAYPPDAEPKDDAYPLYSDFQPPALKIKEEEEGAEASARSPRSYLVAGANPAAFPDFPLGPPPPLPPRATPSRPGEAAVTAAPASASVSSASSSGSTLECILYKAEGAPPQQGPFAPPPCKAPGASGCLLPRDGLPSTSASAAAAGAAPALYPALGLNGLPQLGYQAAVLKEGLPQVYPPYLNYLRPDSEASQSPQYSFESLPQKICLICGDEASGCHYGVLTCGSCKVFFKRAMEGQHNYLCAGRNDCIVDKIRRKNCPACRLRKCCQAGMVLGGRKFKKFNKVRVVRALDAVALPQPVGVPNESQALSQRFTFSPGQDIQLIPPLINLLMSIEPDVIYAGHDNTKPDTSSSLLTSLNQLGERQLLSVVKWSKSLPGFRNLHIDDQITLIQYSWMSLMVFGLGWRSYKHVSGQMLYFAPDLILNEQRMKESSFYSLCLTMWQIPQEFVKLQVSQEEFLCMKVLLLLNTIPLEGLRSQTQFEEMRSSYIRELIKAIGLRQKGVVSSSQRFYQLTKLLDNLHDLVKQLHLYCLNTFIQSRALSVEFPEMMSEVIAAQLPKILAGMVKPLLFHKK
Nature of the test: Progesterone receptor-antagonistic action in stably transfected SK-N-MC cells, PR-A, MMTV-LUC reporter. Format: cell-based. Particulars: read-out: IC50 PR-A. The method, then:
(§1) Determination of Progesterone Receptor-Antagonistic Action in Stable Transfectants of Human Neuroblastoma Cells (SK-N-MC Cells) with the Human Progesterone a or Progesterone B Receptor and an MN-LUC Reporter Construct
(§2) SK-N-MC cells (human neuroblastoma cells) which have been stably transfected with plasmids expressing the human progesterone receptor B (pRChPR-B-neo) or the human progesterone receptor A (pRChPR-A-neo) and a reporter construct (pMMTV-LUC) were incubated for 24 hours either in the absence (negative control) or in the presence of ascending amounts of the particular test compound (0.01 nmol/l, 0.1 nmol/l, 1 nmol/l, 10 nmol/l, 100 nmol/l and […]), in order to determine the agonistic efficacy. As a positive control of the reporter gene induction, the cells were treated with the synthetic gestagen promegestone (0.01 nmol/l, 0.1 nmol/l, 1 nmol/l, 10 nmol/l, 100 nmol/l and […]). To determine the antagonistic activity, the cells were treated with 0.1 nmol/l promegestone and additionally with ascending amounts of the particular test compound (0.01 nmol/l, 0.1 nmol/l, 1 nmol/l, 10 nmol/l, 100 nmol/l and […]). The activity of the reporter gene LUC (LUC=luciferase) was determined in the cell lysates and measured as RLU (relative light units). All measurements are reported as % efficacy and as EC50 and IC50 concentrations.

The target of test [2] is T2, human progesterone receptor B (Homo sapiens, UniProt P06401).
T2 construct: expressed in transfected cells; host or cells: SK-N-MC human neuroblastoma cells, stably transfected with pRChPR-B-neo and pMMTV-LUC
T2 sequence (P06401 1-933): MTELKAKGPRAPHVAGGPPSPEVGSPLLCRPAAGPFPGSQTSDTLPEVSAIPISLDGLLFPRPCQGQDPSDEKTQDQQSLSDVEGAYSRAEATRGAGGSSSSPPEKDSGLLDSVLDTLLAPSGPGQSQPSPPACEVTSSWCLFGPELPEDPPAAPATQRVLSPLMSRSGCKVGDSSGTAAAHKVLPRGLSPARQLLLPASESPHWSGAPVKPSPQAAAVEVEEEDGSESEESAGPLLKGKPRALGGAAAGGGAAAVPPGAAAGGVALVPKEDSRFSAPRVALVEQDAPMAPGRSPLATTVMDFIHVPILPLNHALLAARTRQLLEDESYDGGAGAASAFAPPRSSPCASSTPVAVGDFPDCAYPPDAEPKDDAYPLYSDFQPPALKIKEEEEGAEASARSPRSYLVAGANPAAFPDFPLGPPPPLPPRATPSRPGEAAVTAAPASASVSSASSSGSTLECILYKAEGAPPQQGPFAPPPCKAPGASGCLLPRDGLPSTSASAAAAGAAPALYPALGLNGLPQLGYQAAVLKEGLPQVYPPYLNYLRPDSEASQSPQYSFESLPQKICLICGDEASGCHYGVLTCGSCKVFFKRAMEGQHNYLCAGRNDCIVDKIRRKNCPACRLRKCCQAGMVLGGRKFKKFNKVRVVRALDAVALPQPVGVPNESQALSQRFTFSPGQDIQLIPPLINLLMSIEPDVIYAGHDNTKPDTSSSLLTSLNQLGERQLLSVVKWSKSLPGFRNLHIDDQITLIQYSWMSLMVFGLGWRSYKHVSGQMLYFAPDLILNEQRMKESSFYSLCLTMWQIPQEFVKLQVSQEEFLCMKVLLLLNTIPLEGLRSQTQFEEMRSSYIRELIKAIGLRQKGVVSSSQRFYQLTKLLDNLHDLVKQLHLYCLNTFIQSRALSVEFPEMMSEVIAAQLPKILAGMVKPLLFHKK
Briefly: Progesterone receptor-antagonistic action in stably transfected SK-N-MC cells, PR-B, MMTV-LUC reporter. Format: cell-based. The following applies: read-out: IC50 PR-B. How it is done: as §1, §2

Take `C[C@]12C[C@H](c3ccc(C#CCNC(=O)Nc4ccc(N5CCCCC5)cc4)cc3)C3=C4CCC(=O)C=C4CC[C@H]3[C@@H]1CC[C@@]2(O)C(F)(F)C(F)(F)F` [Example 43, 1-{3-[4-((8S,11R,13S,14S,17S)-17-hydroxy-13-methyl-3-oxo-17-pentafluoroethyl-2,3,6,7,8,11,12,13,14,15,16,17-dodecahydro-1H-cyclopenta[a]phenanthren-11-yl)phenyl]prop-2-ynyl}-3-(4-piperidin-1-ylphenyl)urea]: the half-maximal inhibitory concentration (IC50) in test [1] worked out at 800 pM; in test [2], 900 pM.

Turning to `CCOC(=O)c1ccc(NC(=O)NCC#Cc2ccc([C@H]3C[C@@]4(C)C(CC[C@@]4(O)C(F)(F)C(F)(F)F)C4CCC5=CC(=O)CCC5=C43)cc2)cc1` (stereo partly drawn) [Example 37, 4-(3-{3-[4-((8S,11R,13S,14S,17S)-17-hydroxy-13-methyl-3-oxo-17-pentafluoroethyl-2,3,6,7,8,11,12,13,14,15,16,17-dodecahydro-1H-cyclopenta[a]phenanthren-1′-yl)phenyl]prop-2-ynyl}ureido)benzoic acid ethyl ester], the IC50 in test [1] worked out at 100 pM; in test [2], 400 pM.

Consider `CC(C)(C)c1ccc(NC(=O)NCC#Cc2ccc([C@H]3C[C@@]4(C)[C@@H](CC[C@@]4(O)C(F)(F)C(F)(F)F)[C@@H]4CCC5=CC(=O)CCC5=C43)cc2)cc1` [Example 33, 1-{3-[4-((8S,11R,13S,14S,17S)-17-hydroxy-13-methyl-3-oxo-17-pentafluoroethyl-2,3,6,7,8,11,12,13,14,15,16,17-dodecahydro-1H-cyclopenta[a]phenanthren-11-yl)phenyl]prop-2-ynyl}-3-(4-tert-butylphenyl)urea], for which the 50% inhibitory concentration (IC50) amounted to 900 pM in test [1] and 800 pM in test [2].

On to `CC(C)(C)c1ccc(NC(=O)OCC#Cc2ccc([C@H]3C[C@@]4(C)C(CC[C@@]4(O)C(F)(F)C(F)(F)F)C4CCC5=CC(=O)CCC5=C43)cc2)cc1` (stereo partly drawn) [Example 59, 4-tert-butylphenylcarbamic acid 3-[4-((8S,11R,13S,14S,17S)-17-hydroxy-13-methyl-3-oxo-17-pentafluoroethyl-2,3,6,7,8,11,12,13,14,15,16,17-dodecahydro-1H-cyclopenta[a]phenanthren-1′-yl)phenyl]prop-2-ynyl ester], for which the IC50 in test [1] was 700 pM; in test [2], 1200 pM.

For `C[C@]12C[C@H](c3ccc(C#CCOC(=O)Nc4ccc(F)cc4)cc3)C3=C4CCC(=O)C=C4CCC3C1CC[C@@]2(O)C(F)(F)C(F)(F)F` (stereo partly drawn) [Example 48, 4-fluorophenylcarbamic acid 3-[4-((8S,11R,13S,14S,17S)-17-hydroxy-13-methyl-3-oxo-17-pentafluoroethyl-2,3,6,7,8,11,12,13,14,15,16,17-dodecahydro-1H-cyclopenta[a]phenanthren-1′-yl)phenyl]prop-2-ynyl ester], the IC50 turned out to be 90 pM in test [1] and 80 pM in test [2].

On to `C#Cc1ccc([C@H]2C[C@@]3(C)C(CC[C@@]3(O)C(F)(F)C(F)(F)F)C3CCC4=CC(=O)CCC4=C32)cc1` (stereo partly drawn) [Example 22, (8S,11R,13S,14S,17S)-1′-(4-ethynylphenyl)-17-hydroxy-13-methyl-17-pentafluoroethyl-1,2,6,7,8,11,12,13,14,15,16,17-dodecahydrocyclopenta[a]phenanthren-3-one], for which the IC50 in test [1] and in test [2] was 14 pM in each case.

As to `C[C@]12C[C@H](c3ccc(C#Cc4cccc(S(C)(=O)=O)c4)cc3)C3=C4CCC(=O)C=C4CC[C@H]3[C@@H]1CC[C@@]2(O)C(F)(F)C(F)(F)F` [Example 51, (8S,11R,13S,14S,17S)-17-hydroxy-11-[4-(3-methanesulphonylphenylethynyl)phenyl]-13-methyl-17-pentafluoroethyl-1,2,6,7,8,11,12,13,14,15,16,17-dodecahydrocyclopenta[a]phenanthren-3-one], the IC50 in test [1] stood at 80 pM; in test [2] it was 100 pM.

Take `C[C@]12C[C@H](c3ccc(C#CCOCC#N)cc3)C3=C4CCC(=O)C=C4CCC3C1CC[C@@]2(O)C(F)(F)C(F)(F)F` (stereo partly drawn) [Example 14, {3-[4-((8S,11R,13S,14S,17S)-17-hydroxy-13-methyl-3-oxo-17-pentafluoroethyl-2,3,6,7,8,11,12,13,14,15,16,17-dodecahydro-1H-cyclopenta[a]phenanthren-1′-yl)phenyl]prop-2-ynyloxy}acetonitrile]: the half-maximal inhibitory concentration (IC50) in test [1] and in test [2] was 100 pM in each case.

As to `CCOC(=O)CCNC(=O)NCC#Cc1ccc([C@H]2C[C@@]3(C)C(CC[C@@]3(O)C(F)(F)C(F)(F)F)C3CCC4=CC(=O)CCC4=C32)cc1` (stereo partly drawn) [Example 30, 3-(3-{3-[4-((8S,11R,13S,14S,17S)-17-hydroxy-13-methyl-3-oxo-17-pentafluoroethyl-2,3,6,7,8,11,12,13,14,15,16,17-dodecahydro-1H-cyclopenta[a]phenanthren-1′-yl)phenyl]prop-2-ynyl}ureido)propionic acid ethyl ester], the IC50 worked out at 100 pM in test [1] and 400 pM in test [2].

`CC(C)(C)NC(=O)NCC#Cc1ccc([C@H]2C[C@@]3(C)[C@@H](CC[C@@]3(O)C(F)(F)C(F)(F)F)[C@@H]3CCC4=CC(=O)CCC4=C32)cc1` [Example 40, 1-{3-[4-((8S,11R,13S,14S,17S)-17-hydroxy-13-methyl-3-oxo-17-pentafluoroethyl-2,3,6,7,8,11,12,13,14,15,16,17-dodecahydro-1H-cyclopenta[a]phenanthren-11-yl)phenyl]prop-2-ynyl}-3-tert-butylurea]: the figures for the concentration for half-maximal inhibition (IC50) in test [1] and in test [2] were 100 pM and 300 pM, respectively.

With `COC(=O)c1cccc(C=CC#Cc2ccc([C@H]3C[C@@]4(C)C(CC[C@@]4(O)C(F)(F)C(F)(F)F)C4CCC5=CC(=O)CCC5=C43)cc2)c1` (mixture of isomers) [Example 12, 3-{(E/Z)-4-[4-((8S,11R,13S,14S,17S)-17-hydroxy-13-methyl-3-oxo-17-pentafluoroethyl-2,3,6,7,8,11,12,13,14,15,16,17-dodecahydro-1H-cyclopenta[a]phenanthren-1′-yl)phenyl]but-1-en-3-ynyl}benzoic acid methyl ester], the IC50 in test [1] amounted to 1000 pM; in test [2], 2000 pM.

Take `Cc1noc(C)c1NC(=O)NCC#Cc1ccc([C@H]2C[C@@]3(C)C(CC[C@@]3(O)C(F)(F)C(F)(F)F)C3CCC4=CC(=O)CCC4=C32)cc1` (stereo partly drawn) [Example 28, 1-(3,5-dimethylisoxazol-4-yl)-3-{3-[4-((8S,11R,13S,14S,17S)-17-hydroxy-13-methyl-3-oxo-17-pentafluoroethyl-2,3,6,7,8,11,12,13,14,15,16,17-dodecahydro-1H-cyclopenta[a]phenanthren-1′-yl)phenyl]prop-2-ynyl}urea]: the IC50 in test [1] was 40 pM; in test [2], 80 pM.

By IC50 is commonly meant the midpoint of a concentration-inhibition curve.
